The results in this text go back to patent EP0719251B1, “BICYCLO (2.2.2) OCTANE DERIVATIVES CHOLECYSTOKININ AND/OR GASTRIN ANTAGONISTS” (JAMES BLACK FOUNDATION LIMITED, priority 1993, dated 1995).

Test [1] has as its target T1, CCKB receptor (Mus musculus, UniProt P56481).
T1 construct: The whole brains from male mice (CD1 22-25g; Charles River) were removed; from tissue; host or cells: cerebral cortex membranes of male CD1 mice
T1 sequence (P56481 1-453): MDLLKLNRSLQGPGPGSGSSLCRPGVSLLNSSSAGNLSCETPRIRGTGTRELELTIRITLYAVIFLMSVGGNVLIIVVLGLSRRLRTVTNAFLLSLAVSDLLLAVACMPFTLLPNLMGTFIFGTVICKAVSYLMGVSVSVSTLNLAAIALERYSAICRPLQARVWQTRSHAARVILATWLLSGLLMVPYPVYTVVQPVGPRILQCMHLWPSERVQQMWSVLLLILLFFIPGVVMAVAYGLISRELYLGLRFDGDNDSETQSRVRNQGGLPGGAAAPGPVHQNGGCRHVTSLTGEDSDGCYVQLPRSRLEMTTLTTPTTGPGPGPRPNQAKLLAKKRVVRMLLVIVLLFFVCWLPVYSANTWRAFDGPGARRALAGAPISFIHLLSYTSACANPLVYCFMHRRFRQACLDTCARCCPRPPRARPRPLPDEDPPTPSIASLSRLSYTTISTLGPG
In words: radioligand binding assay at the CCKB receptor in mouse cortical membranes. Particulars: [125I]-CCK8S 200pM, 150 min at 21 ± 3°C; for Ki: read-out: CCKB pKi (converted). How it is done: The compounds of the examples were tested for binding at the CCKB receptor in mouse cortical membranes by means of a radioligand binding assay. The procedure was as follows:
The whole brains from male mice (CD1 22-25g; Charles River) were removed and placed in ice-cold buffer (pH7.2 @ 21 ± 3°C) of the following composition (mM); 10 HEPES, 130 NaCl, 4.7 KCl, 5 MgCl2, 1 EDTA and containing 0.25g.l^-1 bacitracin. The cortex was dissected, weighed and homogenised in 40ml ice-cold buffer using a Teflon-in-glass homogeniser. The homogenate was centrifuged at 39,800g for 20 min at 4°C, the supernatant discarded and the pellet resuspended by homogenisation in fresh buffer. The homogenate was recentrifuged (39,800g; 20 min @ 4°C) and the final pellet was resuspended in HEPES buffer to give a tissue concentration of 2mg.ml^-1(original wet weight).
The assay was terminated by rapid filtration through pre-soaked Whatman GF/B filters using a Brandell Cell harvester. The filters were washed (3 x 3ml) with ice-cold 50mM Tris-HCl (pH7.4 @ 4°C) and bound radioactivity determined by counting (1 min.) in a gamma-counter.

Test [2] addresses T2, gastrin (Rattus norvegicus, UniProt P30553).
T2 construct: The stomach was excised and flushed with ca. 1 ml of unbuffered physiological saline solution; from tissue; host or cells: isolated whole stomach of immature rats (33-50 g, ca. 21 days old)
T2 sequence (P30553 1-452): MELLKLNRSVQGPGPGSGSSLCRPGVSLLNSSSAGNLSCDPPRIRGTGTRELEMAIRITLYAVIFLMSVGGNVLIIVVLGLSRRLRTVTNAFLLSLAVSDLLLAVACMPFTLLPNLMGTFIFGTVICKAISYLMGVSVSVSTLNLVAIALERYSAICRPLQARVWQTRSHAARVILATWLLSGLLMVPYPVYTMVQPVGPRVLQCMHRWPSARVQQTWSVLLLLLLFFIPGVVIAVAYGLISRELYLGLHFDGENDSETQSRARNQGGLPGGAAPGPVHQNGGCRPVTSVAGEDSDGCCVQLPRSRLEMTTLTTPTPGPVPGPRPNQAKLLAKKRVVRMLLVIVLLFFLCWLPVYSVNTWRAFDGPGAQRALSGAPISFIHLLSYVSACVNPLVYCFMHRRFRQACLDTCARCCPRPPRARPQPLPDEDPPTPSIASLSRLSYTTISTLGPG
In words: gastrin antagonist activity in an immature rat stomach assay. The note with it: isolated immature rat stomach, cumulative pentagastrin dose-response curves, acid secretion; for Kb: read-out: Gastrin pKB (converted). How it is done:
The compounds of the examples were also tested for gastrin antagonist activity in an immature rat stomach assay. The procedure was as follows: The oesophagus of immature rats (33-50 g, ca. 21 days old) was ligated at the level of the cardiac sphincter and the duodenal sphincter was cannulated. The stomach was excised and flushed with ca. 1 ml of unbuffered physiological saline solution. The fundus was punctured and cannulated. A further 4-5 ml of unbuffered solution was flushed through the stomach to ensure the preparation was not leaking. […] The stomach was continuously perfused at a rate of 1 ml min^-1 with unbuffered solution gassed with 100% O2 with the perfusate passing over an internally referenced pH-electrode fixed 12 cm above the stomach. After 120 min of stabilisation the drugs were added directly to the serosal solution in the organ bath and after a further 60 min cumulative pentagastrin dose-response curves were started.

With `COC(=O)c1cc(NC(=O)[C@H](Cc2ccccc2)NC(=O)C2C3c4ccccc4C(c4ccccc43)C2C(=O)NCC23CC4CC(CC(C4)C2)C3)cc(C(=O)OC)c1` (single isomer, unassigned) [Example 48], the Ki in test [1] was 10000 nM.

Consider `O=C(O)c1ccc(NC(=O)[C@H](Cc2ccccc2)NC(=O)C2C3c4ccccc4C(c4ccccc43)C2C(=O)NCC23CC4CC(CC(C4)C2)C3)cc1` (single isomer, unassigned) [Example 46, cis-7-(1S-(4-carboxy-phenylaminocarbonyl) -2-phenylethylaminocarbonyl)-8-(1-adamantane-methylaminocarbonyl) -2,3,5,6-dibenzobicyclo[2.2.2]octane], for which, in test [1], the Ki is 158 nM. Moreover, in test [2], the Kb was 2000 nM.

On to `O=C(O)c1cc(NC(=O)[C@@H](Cc2ccc(O)cc2)NC(=O)C2C3c4ccccc4C(c4ccccc43)C2C(=O)NCC23CC4CC(CC(C4)C2)C3)cc(C(=O)O)c1` (single isomer, unassigned) [Example 27, cis-7-(1R-(3,5-dicarboxyphenylaminocarbonyl)-2-(4-hydroxyphenyl)ethylaminocarbonyl)-8-(1-adamantanemethylaminocarbonyl)-2,3,5,6-dibenzobicyclo [2.2.2]octane], for which the Ki in test [1] is 15.8 nM. For the same compound, the Kb in test [2] was 7.94 nM.

Take `O=C(O)c1cc(NC(=O)[C@H](Cc2ccccc2)NC(=O)C2C3c4ccccc4C(c4ccccc43)C2C(=O)NCC2CCCCCC2)cc(C(=O)O)c1` (single isomer, unassigned) [Example 28, cis-7-(1S-(3,5-dicarboxyphenylaminocarbonyl) -2-phenylethylaminocarbonyl)-8-(1-cycloheptane-methylaminocarbonyl) -2,3,5,6-dibenzobicyclo[2.2.2]octane]: the Ki in test [1] was 3.98 nM. For the same compound, the Kb in test [2] is 3.98 nM.

Turning to `O=C(O)c1cc(NC(=O)[C@H](Cc2ccc(O)cc2)NC(=O)C2C3c4ccccc4C(c4ccccc43)C2C(=O)NCC23CC4CC(CC(C4)C2)C3)cc(C(=O)O)c1` (single isomer, unassigned) [Example 25, cis-7-(1S-(3,5-dicarboxyphenylaminocarbonyl)-2-(4-hydroxyphenyl)ethylaminocarbonyl)-8-(1-adaxantanemethylaminocarbonyl)-2,3,5,6-dibenzobicyclo[2.2.2]octane], in test [2], the Kb is 63.1 nM.

For the compound `O=C(O)c1cccc(NC(=O)[C@H](Cc2cccs2)NC(=O)C2C3c4ccccc4C(c4ccccc43)C2C(=O)NCc2cccc3ccccc23)c1` (single isomer, unassigned) [Example 58, cis-7-(1S-(3-carboxyphenylaminocarbonyl)-2-(2-thiophenyl)ethylaminocarbonyl)-8-(1-naphthalenemethylaminocarbonyl)-2,3,5,6-dibenzobicyclo[2.2.2]octane], the Ki in test [1] was 501 nM.

As for `O=C(O)c1cc(NC(=O)[C@H](Cc2ccc(O)cc2)NC(=O)C2C3c4ccccc4C(c4ccccc43)C2C(=O)NCC23CC4CC(CC(C4)C2)C3)cc(C(=O)O)c1` (single isomer, unassigned) [Example 24, cis-7-(1S-(3,5-dicarboxyphenylaminocarbonyl) -2-(4-hydroxyphenyl) -ethylaminocarbonyl)-8-(1-adamantanemethylaminocarbonyl) -2,3,5,6-dibenzobicyclo[2.2.2]octane], the Ki in test [1] is 1.58 nM. For the same compound, in test [2], the Kb is 1.26 nM.

For `O=C(NCC12CC3CC(CC(C3)C1)C2)C1C2c3ccccc3C(c3ccccc32)C1C(=O)N[C@@H](Cc1ccccc1)C(=O)Nc1cc(-c2nnn[nH]2)cc(-c2nnn[nH]2)c1` (stereo partly drawn) [Example 44, cis-7-(1S-(3,5-ditetrazolylphenylaminocarbonyl) -2-phenylethylaminocarbonyl) -8-(1-adamantanemethylaminocarbonyl)-2,3,5,6-dibenzobicyclo[2.2.2] octane], the “CCKB pKi” value in test [1] worked out at 6.5. For the same compound, the “Gastrin pKB” value in test [2] (60 min) came to 6.9.

For `O=C(O)c1cc(NC(=O)[C@@H](Cc2ccc(O)cc2)NC(=O)C2C3c4ccccc4C(c4ccccc43)C2C(=O)NCC23CC4CC(CC(C4)C2)C3)cc(C(=O)O)c1` (single isomer, unassigned) [Example 26, cis-7-(1R-(3,5-dicarboxyphenylaminocarbonyl)-2-(4-hydroxyphenyl)-ethylaminocarbonyl)-8-(1-adamantanemethylaminocarbonyl) -2,3,5,6-dibenzobicyclo [2.2.2]octane], the Kb in test [2] is 158 nM.

On to `O=C(O)c1ccc(NC(=O)[C@H](Cc2ccccc2)NC(=O)C2C3c4ccccc4C(c4ccccc43)C2C(=O)NCC23CC4CC(CC(C4)C2)C3)cc1` (single isomer, unassigned) [Example 47], for which, in test [1], the Ki is 126 nM.

On to “cis-7-(1S-(3-carboxyphenylaminocarbonyl)-2- (2-thiophenyl)ethylaminocarbonyl)-8-(1-naphthalenemethylaminocarbonyl) -2,3,5,6-dibenzobicyclo[2.2.2]octane [Example 57]”, for which the “CCKB pKi” value in test [1] is reported as 7.2.

Regarding `O=C(O)c1cccc(NC(=O)[C@H](Cc2ccccc2)NC(=O)C2C3c4ccccc4C(c4ccccc43)C2C(=O)NCc2cccc3ccccc23)c1` (single isomer, unassigned) [Example 60, cis-7-(1S-(3-carboxyphenylaminocarbonyl)-2-phenylethylaminocarbonyl)-8-(1-naphthalenemethylaminocarbonyl)-2,3,5,6-dibenzobicyclo [2.2.2]octane], the Ki in test [1] is 398 nM.

Consider `O=C(O)c1cc(NC(=O)[C@H](Cc2ccccc2)NC(=O)C2C3c4ccccc4C(c4ccccc43)C2C(=O)NCC2CCCCCC2)cc(C(=O)O)c1` (single isomer, unassigned) [Example 29, cis-7-(1S-(3,5-dicarboxyphenylaminocarbonyl) -2-phenylethylaminocarbonyl) -8-(cycloheptanemethyl-aminocarbonyl)-2,3,5,6-dibenzobicyclo[2.2.2]octane], for which the Ki in test [1] was 39.8 nM. In test [2], the Kb is 100 nM.

Turning to `O=C(NCC12CC3CC(CC(C3)C1)C2)C1C2c3ccccc3C(c3ccccc32)C1C(=O)N[C@@H](Cc1ccccc1)C(=O)Nc1ccccc1` (single isomer, unassigned) [Example 23, cis-7-(1S-(phenylaminocarbonyl)-2-phenylethylaminocarbonyl)-8-(1-adamantanemethylaminocarbonyl)-2,3,5,6-dibenzobicyclo[2.2.2]octane], the Kb in test [2] was 251 nM.

Consider “cis-7-(1S-(3-carboxyphenylaminocarbonyl)-2-phenylethylaminocarbonyl)-8-(1-naphthalenemethylaminocarbonyl)-2,3,5,6-dibenzobicyclo[2.2.2]octane [Example 59]”, for which, in test [1], the “CCKB pKi” value came out at 7.2.
